{"source": "ChEMBL document CHEMBL1201862", "about": "“PubChem BioAssay data set” (2004)", "key": {"[1]": {"system": "Vero", "experiment": "antiviral protection of cells from WNV – synthesized analogs, SAR follow-up (AID 2238)", "assay_type": "functional, cell-based", "conditions": "Chlorocebus sabaeus"}, "[2]": {"system": "Vero", "experiment": "host cell viability loss, Vero E6 – synthesized analogs, cytotoxicity control for West Nile virus antiviral project, SAR follow-up (AID 2244)", "assay_type": "functional", "conditions": "Chlorocebus sabaeus"}, "[3]": {"biological_target": "T1, Replicative DNA helicase DnaB (Mycobacterium tuberculosis, UniProt P9WMR3)", "T1 sequence (P9WMR3 whole entry)": "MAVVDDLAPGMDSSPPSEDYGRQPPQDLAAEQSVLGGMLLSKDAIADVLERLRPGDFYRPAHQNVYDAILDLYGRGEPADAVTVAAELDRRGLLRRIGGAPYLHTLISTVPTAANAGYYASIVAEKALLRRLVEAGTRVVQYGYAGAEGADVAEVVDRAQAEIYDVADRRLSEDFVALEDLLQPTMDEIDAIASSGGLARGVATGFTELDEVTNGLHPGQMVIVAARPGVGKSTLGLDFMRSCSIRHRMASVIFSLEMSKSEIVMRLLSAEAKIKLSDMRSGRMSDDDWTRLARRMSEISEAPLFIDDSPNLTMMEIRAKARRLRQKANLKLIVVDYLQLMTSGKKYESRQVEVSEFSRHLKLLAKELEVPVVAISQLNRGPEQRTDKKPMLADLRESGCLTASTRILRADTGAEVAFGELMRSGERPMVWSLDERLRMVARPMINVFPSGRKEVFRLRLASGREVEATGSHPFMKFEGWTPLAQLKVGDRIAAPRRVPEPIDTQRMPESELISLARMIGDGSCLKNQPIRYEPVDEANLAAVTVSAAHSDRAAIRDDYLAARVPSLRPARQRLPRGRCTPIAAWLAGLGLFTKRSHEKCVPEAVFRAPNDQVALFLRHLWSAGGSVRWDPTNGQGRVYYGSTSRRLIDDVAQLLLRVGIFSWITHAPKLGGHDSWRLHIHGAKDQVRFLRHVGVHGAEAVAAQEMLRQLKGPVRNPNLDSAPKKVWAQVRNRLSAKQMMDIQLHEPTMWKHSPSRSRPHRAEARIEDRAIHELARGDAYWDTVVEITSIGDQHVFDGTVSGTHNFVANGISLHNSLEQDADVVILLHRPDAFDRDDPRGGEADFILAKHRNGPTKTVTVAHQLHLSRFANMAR", "experiment": "DnaB intein splicing inhibitors, dose response, biochemical, cell-free fluorescence (AID 449749)", "assay_type": "functional"}, "[4]": {"biological_target": "T2, Protein RecA (Mycobacterium tuberculosis, UniProt P9WHJ3)", "T2 sequence (P9WHJ3 whole entry)": "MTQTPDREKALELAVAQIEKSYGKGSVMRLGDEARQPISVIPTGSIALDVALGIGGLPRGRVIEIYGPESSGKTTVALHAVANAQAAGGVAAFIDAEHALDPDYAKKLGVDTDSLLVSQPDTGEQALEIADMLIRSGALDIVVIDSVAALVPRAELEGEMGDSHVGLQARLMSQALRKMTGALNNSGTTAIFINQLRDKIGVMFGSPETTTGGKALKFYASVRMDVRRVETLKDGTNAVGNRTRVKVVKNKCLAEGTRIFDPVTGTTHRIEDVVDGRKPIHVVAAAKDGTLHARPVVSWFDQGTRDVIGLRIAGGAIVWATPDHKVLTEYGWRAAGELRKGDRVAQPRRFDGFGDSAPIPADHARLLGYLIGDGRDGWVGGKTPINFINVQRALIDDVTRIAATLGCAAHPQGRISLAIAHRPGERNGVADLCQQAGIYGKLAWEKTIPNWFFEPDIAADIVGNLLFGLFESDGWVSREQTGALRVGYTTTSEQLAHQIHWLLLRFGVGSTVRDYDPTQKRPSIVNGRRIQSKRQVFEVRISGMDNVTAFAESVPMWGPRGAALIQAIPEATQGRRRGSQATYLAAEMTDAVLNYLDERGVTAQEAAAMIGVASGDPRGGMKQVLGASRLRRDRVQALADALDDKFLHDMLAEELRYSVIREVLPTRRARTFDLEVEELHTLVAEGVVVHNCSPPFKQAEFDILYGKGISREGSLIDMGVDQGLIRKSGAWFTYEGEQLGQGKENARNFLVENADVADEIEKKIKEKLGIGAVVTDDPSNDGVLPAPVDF", "experiment": "Fluorescence Cell-Free Homogeneous Dose Retest to Identify Inhibitors of RecA-Intein Splicing Activity. [Related pubchem assays (depositor defined):AID2097, AID2223, AID489010, AID492950]", "assay_type": "functional"}, "[5]": {"experiment": "Intein inhibitors as potential Tuberculosis drugs, a cytotoxicity screen. [Related pubchem assays (depositor defined):AID2221, AID2223, AID434968, AID435010, AID449749, AID449750, AID489010]", "assay_type": "functional"}, "[6]": {"biological_target": "Large T antigen (Simian virus 40, UniProt P03070)", "assay_type": "functional, Betapolyomavirus macacae"}, "[7]": {"biological_target": "T3, Voltage-gated N-type calcium channel alpha-1B subunit/Amyloid beta A4 precursor protein-binding family A member 1 (Homo sapiens, UniProt Q00975+Q02410)", "T3 sequence (Q00975 whole entry)": "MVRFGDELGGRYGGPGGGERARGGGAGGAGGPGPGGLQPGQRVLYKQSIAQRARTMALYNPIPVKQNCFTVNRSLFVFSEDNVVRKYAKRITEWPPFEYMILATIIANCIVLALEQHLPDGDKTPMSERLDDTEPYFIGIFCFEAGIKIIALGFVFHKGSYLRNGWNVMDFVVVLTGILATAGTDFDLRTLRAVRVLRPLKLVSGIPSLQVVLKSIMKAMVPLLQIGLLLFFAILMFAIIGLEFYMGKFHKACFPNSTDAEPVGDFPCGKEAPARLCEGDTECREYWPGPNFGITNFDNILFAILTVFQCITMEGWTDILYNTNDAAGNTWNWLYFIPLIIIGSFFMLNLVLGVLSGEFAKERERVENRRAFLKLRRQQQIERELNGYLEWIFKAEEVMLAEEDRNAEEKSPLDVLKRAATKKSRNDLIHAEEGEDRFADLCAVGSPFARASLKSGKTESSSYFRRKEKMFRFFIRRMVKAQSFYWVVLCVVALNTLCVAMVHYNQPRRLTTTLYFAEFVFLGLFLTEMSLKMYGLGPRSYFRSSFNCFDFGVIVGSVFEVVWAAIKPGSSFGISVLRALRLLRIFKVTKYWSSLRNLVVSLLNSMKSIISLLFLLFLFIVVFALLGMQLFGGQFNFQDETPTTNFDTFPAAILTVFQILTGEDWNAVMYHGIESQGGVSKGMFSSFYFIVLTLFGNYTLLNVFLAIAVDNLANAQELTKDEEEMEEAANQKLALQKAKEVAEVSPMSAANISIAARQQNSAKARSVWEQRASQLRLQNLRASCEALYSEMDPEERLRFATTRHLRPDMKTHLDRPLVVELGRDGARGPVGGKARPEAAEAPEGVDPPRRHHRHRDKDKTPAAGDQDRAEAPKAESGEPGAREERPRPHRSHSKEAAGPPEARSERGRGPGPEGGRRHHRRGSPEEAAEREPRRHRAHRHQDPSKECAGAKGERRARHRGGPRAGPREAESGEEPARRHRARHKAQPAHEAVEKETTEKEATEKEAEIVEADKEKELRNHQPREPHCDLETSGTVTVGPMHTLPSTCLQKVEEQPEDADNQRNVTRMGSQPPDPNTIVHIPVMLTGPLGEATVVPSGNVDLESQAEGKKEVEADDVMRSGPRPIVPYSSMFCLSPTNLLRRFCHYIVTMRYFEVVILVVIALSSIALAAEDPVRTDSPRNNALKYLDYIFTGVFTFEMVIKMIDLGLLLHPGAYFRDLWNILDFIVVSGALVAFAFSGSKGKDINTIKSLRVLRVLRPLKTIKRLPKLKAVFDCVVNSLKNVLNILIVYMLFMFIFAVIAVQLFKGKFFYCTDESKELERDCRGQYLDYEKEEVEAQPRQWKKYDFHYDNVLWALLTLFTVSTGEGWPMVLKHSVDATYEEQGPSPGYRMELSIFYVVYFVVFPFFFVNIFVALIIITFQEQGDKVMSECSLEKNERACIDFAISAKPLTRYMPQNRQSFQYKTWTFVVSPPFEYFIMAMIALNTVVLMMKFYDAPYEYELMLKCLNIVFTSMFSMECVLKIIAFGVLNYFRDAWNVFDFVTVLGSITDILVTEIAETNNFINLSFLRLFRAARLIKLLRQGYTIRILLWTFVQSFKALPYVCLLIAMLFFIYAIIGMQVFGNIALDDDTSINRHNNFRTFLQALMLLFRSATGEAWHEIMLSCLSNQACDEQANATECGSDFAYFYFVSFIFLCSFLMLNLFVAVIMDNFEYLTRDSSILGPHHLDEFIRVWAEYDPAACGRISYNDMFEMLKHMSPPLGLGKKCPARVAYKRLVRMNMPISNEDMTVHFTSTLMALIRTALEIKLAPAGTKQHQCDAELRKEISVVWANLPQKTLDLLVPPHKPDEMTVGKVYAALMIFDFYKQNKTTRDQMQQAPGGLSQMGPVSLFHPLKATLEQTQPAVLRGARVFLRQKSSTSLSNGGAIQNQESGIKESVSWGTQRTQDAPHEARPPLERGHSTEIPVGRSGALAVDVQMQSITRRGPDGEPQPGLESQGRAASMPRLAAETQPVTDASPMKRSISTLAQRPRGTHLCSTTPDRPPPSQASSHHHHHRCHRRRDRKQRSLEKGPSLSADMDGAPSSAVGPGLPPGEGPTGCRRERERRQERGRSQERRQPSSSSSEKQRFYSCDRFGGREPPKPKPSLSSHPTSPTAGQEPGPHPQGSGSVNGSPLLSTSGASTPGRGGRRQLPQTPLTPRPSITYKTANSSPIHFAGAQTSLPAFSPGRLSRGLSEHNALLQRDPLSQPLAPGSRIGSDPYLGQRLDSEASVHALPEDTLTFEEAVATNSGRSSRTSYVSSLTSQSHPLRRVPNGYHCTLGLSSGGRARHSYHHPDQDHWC", "T3 sequence (Q02410 whole entry)": "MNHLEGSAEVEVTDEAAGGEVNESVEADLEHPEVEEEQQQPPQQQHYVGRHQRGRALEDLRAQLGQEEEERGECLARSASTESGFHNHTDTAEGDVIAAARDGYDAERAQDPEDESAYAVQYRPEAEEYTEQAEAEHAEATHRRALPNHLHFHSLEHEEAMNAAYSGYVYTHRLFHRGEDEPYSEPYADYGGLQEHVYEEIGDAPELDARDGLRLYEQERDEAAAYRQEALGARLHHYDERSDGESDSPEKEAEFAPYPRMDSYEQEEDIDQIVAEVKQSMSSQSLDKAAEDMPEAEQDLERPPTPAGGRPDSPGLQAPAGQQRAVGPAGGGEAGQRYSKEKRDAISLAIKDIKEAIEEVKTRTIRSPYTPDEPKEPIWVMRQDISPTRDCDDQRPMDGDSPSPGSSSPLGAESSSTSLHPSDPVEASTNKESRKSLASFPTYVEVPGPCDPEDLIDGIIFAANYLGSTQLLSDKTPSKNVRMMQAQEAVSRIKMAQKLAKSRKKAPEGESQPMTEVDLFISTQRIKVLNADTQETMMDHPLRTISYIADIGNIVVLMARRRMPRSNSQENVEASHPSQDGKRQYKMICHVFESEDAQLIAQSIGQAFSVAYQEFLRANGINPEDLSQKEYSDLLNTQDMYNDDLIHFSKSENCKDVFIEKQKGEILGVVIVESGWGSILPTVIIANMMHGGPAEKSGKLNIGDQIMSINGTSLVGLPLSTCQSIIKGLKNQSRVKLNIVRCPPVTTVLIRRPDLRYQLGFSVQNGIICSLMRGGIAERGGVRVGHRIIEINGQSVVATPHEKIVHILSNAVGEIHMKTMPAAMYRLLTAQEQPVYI", "assay_type": "protein assay"}, "[8]": {"biological_target": "T3, Voltage-gated N-type calcium channel alpha-1B subunit/Amyloid beta A4 precursor protein-binding family A member 1", "assay_type": "protein assay", "remark": "listed apart in the source"}, "[9]": {"biological_target": "T4, Bcl-2-like protein 10 (Homo sapiens, UniProt Q9HD36)", "T4 sequence (Q9HD36 whole entry)": "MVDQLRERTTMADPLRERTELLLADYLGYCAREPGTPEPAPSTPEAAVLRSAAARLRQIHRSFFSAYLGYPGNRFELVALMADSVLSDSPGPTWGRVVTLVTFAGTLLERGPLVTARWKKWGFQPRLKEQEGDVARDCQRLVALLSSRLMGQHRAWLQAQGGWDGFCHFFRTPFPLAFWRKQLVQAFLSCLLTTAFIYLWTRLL", "experiment": "Bcl-B/TR3 peptide binding disruption – biochemical, fluorescence polarization, FITC-TR3 peptide, selectivity assay for Bfl-1 inhibitor project, primary screen (AID 748);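 note: fluorescence polarization from a fluorescein-labelled TR3 peptide binding purified Bcl-B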"}, "[10]": {"biological_target": "T5, SUMO-activating enzyme (Homo sapiens, UniProt Q9UBT2)", "T5 sequence (Q9UBE0 whole entry)": "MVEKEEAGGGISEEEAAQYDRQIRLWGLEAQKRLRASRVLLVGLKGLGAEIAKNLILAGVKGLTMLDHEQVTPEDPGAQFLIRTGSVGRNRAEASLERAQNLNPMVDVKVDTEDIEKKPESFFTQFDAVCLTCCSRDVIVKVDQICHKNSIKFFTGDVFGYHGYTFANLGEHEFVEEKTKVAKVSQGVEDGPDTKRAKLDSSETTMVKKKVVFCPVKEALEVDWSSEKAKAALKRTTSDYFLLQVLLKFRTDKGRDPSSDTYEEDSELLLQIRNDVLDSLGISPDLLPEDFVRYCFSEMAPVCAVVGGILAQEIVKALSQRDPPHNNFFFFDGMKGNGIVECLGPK", "T5 sequence (Q9UBT2 whole entry)": "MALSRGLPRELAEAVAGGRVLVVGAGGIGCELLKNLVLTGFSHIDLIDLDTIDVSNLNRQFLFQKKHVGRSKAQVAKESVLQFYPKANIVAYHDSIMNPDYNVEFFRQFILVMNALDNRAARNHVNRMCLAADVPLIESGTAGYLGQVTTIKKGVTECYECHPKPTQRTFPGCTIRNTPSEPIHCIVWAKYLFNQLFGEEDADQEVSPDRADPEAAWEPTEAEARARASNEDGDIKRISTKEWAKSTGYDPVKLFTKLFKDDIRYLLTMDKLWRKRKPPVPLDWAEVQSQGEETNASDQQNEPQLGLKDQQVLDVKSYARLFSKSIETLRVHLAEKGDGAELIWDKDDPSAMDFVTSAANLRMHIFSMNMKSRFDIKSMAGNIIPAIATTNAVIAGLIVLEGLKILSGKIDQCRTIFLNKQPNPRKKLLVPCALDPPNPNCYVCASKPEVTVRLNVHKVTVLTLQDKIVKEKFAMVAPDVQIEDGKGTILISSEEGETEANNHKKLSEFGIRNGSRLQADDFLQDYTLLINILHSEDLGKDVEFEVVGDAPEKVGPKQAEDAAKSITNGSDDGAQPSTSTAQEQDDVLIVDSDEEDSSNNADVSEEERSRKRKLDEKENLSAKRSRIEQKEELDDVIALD", "experiment": "blockers of UBC9-mediated SUMO conjugation – biochemical, AlphaScreen, SUMOylation inhibitor project, confirmation (AID 2018)", "assay_type": "functional"}, "[11]": {"experiment": "viability loss in Vero cells – cytotoxicity control for Vif-APOBEC3G degradation inhibitor project, dose response (AID 1117358)", "assay_type": "functional", "conditions": "Vero"}, "[12]": {"biological_target": "Tyrosine-protein phosphatase non-receptor type 7 (Homo sapiens, UniProt P35236)", "sequence (P35236 whole entry)": "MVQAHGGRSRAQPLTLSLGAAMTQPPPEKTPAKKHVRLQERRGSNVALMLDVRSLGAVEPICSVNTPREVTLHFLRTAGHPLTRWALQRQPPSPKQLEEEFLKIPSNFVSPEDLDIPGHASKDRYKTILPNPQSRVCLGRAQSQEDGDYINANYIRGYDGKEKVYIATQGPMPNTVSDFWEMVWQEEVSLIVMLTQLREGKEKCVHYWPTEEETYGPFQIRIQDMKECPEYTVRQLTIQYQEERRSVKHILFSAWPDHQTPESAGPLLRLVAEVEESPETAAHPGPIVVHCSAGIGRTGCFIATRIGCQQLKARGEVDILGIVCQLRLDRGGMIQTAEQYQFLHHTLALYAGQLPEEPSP", "experiment": "redox-active compounds inhibiting HePTP phosphatase – biochemical, fluorescence, mechanism study (AID 2068)", "assay_type": "functional"}, "[13]": {"experiment": "viability loss in THP-1 monocytes – THP-1 cells, cytotoxicity control for Vif-APOBEC3G degradation inhibitor project, dose response (AID 1117359)", "assay_type": "functional", "conditions": "THP-1"}, "[14]": {"biological_target": "T5, SUMO-activating enzyme", "experiment": "blockers of SAE1/SAE2–UBC9 SUMO transfer – biochemical, HTRF, uHTS, primary screen (AID 2006)", "assay_type": "protein-complex assay"}}, "note": "Activity calls are given as the source filed them."}
{"smiles": "COc1ccc(-c2csc(N(CCCN(C)C)C(=O)c3ccccc3C)n2)cc1", "values": [{"measurement": "IC50", "setting": "[1]", "value": "76.6 µM (active)"}, {"measurement": "CC50", "setting": "[2]", "value": "63.2 µM (active)"}]}
{"smiles": "O=C(CCl)N1c2ccccc2OCC1c1ccccc1", "note": "(centres undefined)", "values": [{"measurement": "AC50", "setting": "[3]", "value": "2.58 µM (active)"}, {"measurement": "EC50", "setting": "[4]", "value": "0.606 µM (active)"}, {"measurement": "CC50", "setting": "[5]", "value": "6.48 µM (active)"}]}
{"smiles": "N#Cc1c(O)nsc1Nc1ccccc1C(F)(F)F", "values": [{"measurement": "IC50", "setting": "[6]", "value": "56.5 µM (active)"}, {"measurement": "IC50", "setting": "[7]", "value": "> 50 µM (inactive)"}, {"measurement": "IC50", "setting": "[8]", "value": "7.54 µM (active)"}]}
{"smiles": "O=C(Nc1ccccc1)c1ccc2nc(-c3ccco3)c(-c3ccco3)nc2c1", "values": [{"measurement": "IC50", "setting": "[9]", "value": "> 100 µM (inactive)"}, {"measurement": "IC50", "setting": "[10]", "value": "1.54 µM (active)"}, {"measurement": "CC50", "setting": "[11]", "value": "> 40 µM (active)"}, {"measurement": "IC50", "setting": "[12]", "value": "2.51 µM (active)"}, {"measurement": "CC50", "setting": "[13]", "value": "> 40 µM (active)"}, {"measurement": "IC50", "setting": "[14]", "value": "20.7 µM (active)"}]}
